Reference: US8592419B2, “Ceramides and apoptosis-signaling ligand” (MUSC Foundation for Research Development, priority 2004, dated 2013)

What was measured:
Assay type in all cases: cell-based, human
[1] = system: total ceramide levels in DU145 cells; assay: Ceramide measurement by mass spectrometry; settings: 10 μM
Procedure: Ceramide measurement. 2.1×10^6 cells were seeded in 100 mm plates overnight. The next day, media was removed and replaced with media containing vehicle control or LCL204 (10 μM) for indicated time points. Following treatment, cells were harvested by gentle scraping and immediate centrifugation at 4° C. for 5 minutes at 400×g. Cell pellets were then resuspended in ice cold PBS and stored at −80° C. For sphingolipid analysis, cell pellets were examined using mass spectometry as previously described (61).

PUMA = assay: Immunoblot of PUMA; settings: for PUMA up-regulation: 10 μM
Procedure: (§1) Immunoblot analysis. Cells were seeded in 60mm plates as described above and treated accordingly. Cells were lifted by gently scraping the plates, washed once with ice cold PBS and then lysed in lysis buffer (PBS, 1% Triton X-100, 10% glycerol) containing protease inhibitors pepstatin A (0.5 μg/ml), leupeptin (0.5 μg/ml), aprotinin (5 μg/ml), and PMSF (100 μg/ml) for 10 minutes on ice. Insoluble material was removed by centrifugation at 14,000 rpm for 15 minutes at 4° C. The supernatants were then supplemented with SDS at a final concentration of 2% and stored at −80° C. Protein concentrations were determined using the DC Protein Assay (BioRad Laboratories; Hercules, CA, USA) according to the manufacturer's instructions. 50 μg of protein per sample (unless otherwise indicated) were separated on NuPAGE 4-12% Bis-Tris gels (Invitrogen; Carlsbad, CA, USA) and transferred to nitrocellulose membranes (BioRad). Following transfer, membranes were blocked for 1 hour at room temperature in Tris-buffered saline (TBS) containing 0.1% Tween-20 and 5% nonfat dry milk and incubated overnight at 4° C. with primary antibody at a dilution of 1:2,000(actin), 1:1,000(cytochrome c, COX IV, Bax, Bak, p53, p38, P-p38), 1:500(P-JNK, JNK), 1:250 (AC, p73), or 1:400(LAMP-1, cathepsin B). Overnight incubations were performed in 5% milk in TBS-Tween. Following overnight incubation, membranes were washed three times for 10 minutes each in TBS-Tween and incubated for 1 hour at room temperature with secondary antibody in 5% milk TBS-Tween at a dilution 1:5,000 (goat anti-mouse IgG) or 1:50,000 (goat anti-rabbit). Membranes were then washed three times more and incubated for 5 minutes at room temperature with Super Signal HRP substrate (Pierce Biotechnology Inc.; Rockford, IL, USA).

JNK = assay: Immunoblot of phosphorylated JNK; settings: DU145 and PC-3 cells
Procedure: as §1, with “Following overnight incubation, membranes were washed three times for 10 minutes each in TBS-Tween and incubated for 1 hour at room temperature with secondary antibody in 5% milk TBS-Tween at a dilution 1:5,000 (goat anti-mouse IgG) or 1:50,000 (goat anti-rabbit). Membranes were then washed three times more and incubated for 5 minutes at room temperature with Super Signal HRP substrate (Pierce Biotechnology Inc.; Rockford, IL, USA).” left out

LAMP-1 = assay: Immunoblot of LAMP-1; settings: DU145 cells, 12 hours LCL204
Procedure: as §1, with “Following overnight incubation, membranes were washed three times for 10 minutes each in TBS-Tween and incubated for 1 hour at room temperature with secondary antibody in 5% milk TBS-Tween at a dilution 1:5,000 (goat anti-mouse IgG) or 1:50,000 (goat anti-rabbit). Membranes were then washed three times more and incubated for 5 minutes at room temperature with Super Signal HRP substrate (Pierce Biotechnology Inc.; Rockford, IL, USA).” left out

Bax = assay: Immunoblot of Bax; settings: PC-3 cells, 10 μM
Procedure: as §1, with “Following overnight incubation, membranes were washed three times for 10 minutes each in TBS-Tween and incubated for 1 hour at room temperature with secondary antibody in 5% milk TBS-Tween at a dilution 1:5,000 (goat anti-mouse IgG) or 1:50,000 (goat anti-rabbit). Membranes were then washed three times more and incubated for 5 minutes at room temperature with Super Signal HRP substrate (Pierce Biotechnology Inc.; Rockford, IL, USA).” left out

Caspases 3 and 7 = assay: Caspase 3/7 activity assay; settings: DU145 cells, 24 hours treatment
Procedure: Caspase 3/7 Activity Assay. Cells were seeded overnight in clear bottom black 96 well plates (Corning; Acton Mass.). The next day, medium was removed and replaced with medium containing vehicle or LCL204 at indicated concentrations. After 24 hours treatment, Caspases 3 and 7 activities were measured using Apo-ONE Homogeneous Caspase 3/7 assay according to the manufacturer's instructions (Promega). Fluorescence was measured using a Fluostar dual fluorescence/absorbance plate reader (BMG Laboratories; Durham, N.C., USA) with 485 nm excitation and 520 nm emission filter set.

[2] = system: mitochondria membrane potential in DU145 cells; assay: Mitochondria membrane potential measurement (JC-1); settings: 5 μM
Procedure: Mitochondria membrane potential measurement. Cells were seeded at a density of 7.49×10^5 cells per plate in 60 mm plates overnight. The next day, media was replaced with media containing vehicle control or LCL204 (5 μM). Cells were lifted using Cell Stripper (Mediatech), washed twice in PBS, and resuspended in 3 ml 1×JC-1 reagent solution (dissolved in medium). Samples were incubated at 37° C. for 15 minutes, washed twice with PBS, and resuspended in 0.5 ml growth medium before analysis by flow cytometry using a Beckton-Dickinson FACSCalibur (590 nm/527 nm emission). A minimum of 10,000 events were scored for each sample.

p38 MAPK = assay: Immunoblot of phosphorylated p38 MAPK; settings: PPC-1/pcDNA3 vector control cells
Procedure: as §1, with “Following overnight incubation, membranes were washed three times for 10 minutes each in TBS-Tween and incubated for 1 hour at room temperature with secondary antibody in 5% milk TBS-Tween at a dilution 1:5,000 (goat anti-mouse IgG) or 1:50,000 (goat anti-rabbit). Membranes were then washed three times more and incubated for 5 minutes at room temperature with Super Signal HRP substrate (Pierce Biotechnology Inc.; Rockford, IL, USA).” left out

AC mRNA = assay: Reverse transcriptase PCR of AC mRNA; settings: 10 μM, DU145 cells
Procedure: Reverse Transcriptase PCR. DU145 cells were seeded in 6-well plates as described above. […] Cells were collected at indicated time points and total RNA was extracted using RNAqueous-4PCR kit (Ambion Inc.; Austin, TX), including the DNase I treatment step to remove DNA contamination. The level of transcripts of AC was assayed by two-step RT-PCR protocol (Ambion) and Rig/S15 was used as an internal control. The sequence of the primer for amplification of AC is as followed: [NT] 375 bp. All reactions were performed in a programmable thermal cycler (reverse transcription at 55° C. for 1 hour; PCR at 95° C., 3 minutes; 95° C., 30 second; 52° C., 1 minute and extension at 72° C. for 1 minute; final extension at 72° C., 10 minutes).

DU145 cells = assay: Cell death by MTS assay, ceramide analog combined with AdGFPFasL virus
Procedure: LCL102, a ceramidase inhibitor, which acts to increasing intracellular ceramide levels by […], were tested in this system. This molecule was highly efficient at activating cell death in DU145 cells at nontoxic doses if combined with AdGFPFasL virus at MOIs achievable in vivo. DU145 cells growing in 96 well plates at 1×10^4 cells/well are treated with either media alone or LCL102 at 2 uM for 48 hours followed by AdGFPFasL for 24 hours at the MOI (5-80). Cell death is assayed by the MTS assay. At 2 uM LCL102 and 5MOI of virus, cell death is amplified 4-fold compared to LCL102 alone (FIG. 14).

## CCCCCCCCCCCCCCN[C@H](CO)[C@H](O)c1ccc([N+](=O)[O-])cc1.Cl [LCL204, (1R,2R) D-threo-2-N-Tetradecylamino-1-(4′-nitrophenyl)-1,3-propandiol hydrochloride]
[1]
  total ceramide levels: rise in total ceramide levels within one hour
PUMA; DU145 cells
  PUMA up-regulation: up-regulated in DU145 cells after eight hours
PUMA; PC-3 cells
  PUMA up-regulation: earlier (four hours) in PC-3 cells
PUMA; PPC-1/pcDNA3 control cells, 7.5 μM
  time of PUMA induction: 90 min
JNK
  phosphorylation and activation of JNK: beginning as early as three hours
LAMP-1
  LAMP-1 expression: increases
Bax
  Bax protein levels: unaffected
Caspases 3 and 7
  executioner caspase activity: dose-dependent executioner caspase activity
[2]
  earliest observed decrease in ΔΨm: 2 h
p38 MAPK
  time by which p38 MAPK phosphorylation was induced: ≤ 90 min
AC mRNA
  AC mRNA levels: no decrease in AC mRNA levels
DU145 cells; 2 μM in combination with AdGFPFasL virus at low MOIs
  increase in cancer cell death: ≤ 10 fold
DU145 cells; DU145 cells
  viral infectivity: not modifying viral infectivity
DU145 cells; in vitro, subtoxic doses
  increase of the ability of AdGFPFasL to kill tumor cells: as much as ten-fold
